Data on one compound can be found in patent US11040981B2, “Pyrrolotriazine compounds and methods of inhibiting TAM kinases” (Syros Pharmaceuticals, Inc., priority 2017, dated 2021).

The assay concerns colon carcinoma CT-26 cells. The assay is described as follows: CT-26 syngeneic tumor growth inhibition, alone or with anti-PD1 antibody. In kind it is in vivo, Balb/c female mice. The settings on record: Compound 124 100 mg/kg oral twice daily combined with anti-PD1 antibody (clone RMP1-14) 10 mg/kg IP biweekly; compared with either agent as monotherapy; FIG. 3. Here is the method:
BLAB/c syngeneic mice challenged with colon carcinoma CT-26 cells were used to test the tumor growth inhibitory activity of Compound 124 and an anti-PD1 antibody alone or in combination. CT-26 tumor cells were maintained in vitro as a monolayer culture in RPMI-1640 medium supplemented with 10% heat inactivated fetal bovine serum, 100 U/ml penicillin and 100 μg/ml streptomycin at 37° C. in an atmosphere of 5% CO2 in air. The tumor cells were routinely subcultured twice weekly by trypsin-EDTA treatment. The cells growing in an exponential growth phase were harvested and counted for tumor inoculation. […]
Mice (8 for each regimen) were dosed with one of the following regimens: (1) twice daily oral dosing with 100 mg/kg of Compound 124; (2) biweekly IP injections with 10 mg/kg of anti-PD1 antibody (clone RMP1-14); (3) a combination of twice daily Compound 124 (100 mg/kg) and biweekly anti-PD1 antibody (10 mg/kg) or (4) an orally dosed vehicle control. Subcutaneous tumor volumes were measured three times per week starting at three days post-first dosing using caliper measurements in 2 dimensions (looking down at the tumor, using the calipers to make 2 diameter measurements at right angles to each other). The tumor volume was then calculated using the following standard formula: Tumor Volume=0.5*A*B^2, wherein A=longest diameter of the tumor; and B=shortest diameter of the tumor.

Consider `COC[C@H](C)Nc1ncc2c(-c3ccc(CN4CCN(C)CC4)cc3)cc([C@H]3CC[C@H](O)CC3)n2n1` (single isomer, unassigned) [Compound 124], for which the “tumor growth (subcutaneous tumor volume)” value is recorded as “slower tumor growth”.
